Literature values as cited in article PMC9688344, “[^225Ac]Ac-SibuDAB for Targeted Alpha Therapy of Prostate Cancer: Preclinical Evaluation and Comparison with [^225Ac]Ac-PSMA-617” (Cancers, 2022).
Where two headings read alike, the source gives them in different places.

Assays:
[1] = cited from earlier work
[2] = system: PSMA-positive PC-3 PIP cells; conditions: 4 h incubation; ref Tschan et al., Eur J Nucl Med Mol Imaging 2022; cited from earlier work
PSMA = biological target: T1, PSMA (Homo sapiens, UniProt Q04609); conditions: ref Deberle & Benešová et al., Theranostics 2020; cited from earlier work
T1 construct: expressed in transfected cells; host or cells: PC-3 PIP prostate cancer cells (transduced to express PSMA), provided by Prof; Dr. Martin Pomper, Johns Hopkins University
T1 sequence (Q04609 whole entry): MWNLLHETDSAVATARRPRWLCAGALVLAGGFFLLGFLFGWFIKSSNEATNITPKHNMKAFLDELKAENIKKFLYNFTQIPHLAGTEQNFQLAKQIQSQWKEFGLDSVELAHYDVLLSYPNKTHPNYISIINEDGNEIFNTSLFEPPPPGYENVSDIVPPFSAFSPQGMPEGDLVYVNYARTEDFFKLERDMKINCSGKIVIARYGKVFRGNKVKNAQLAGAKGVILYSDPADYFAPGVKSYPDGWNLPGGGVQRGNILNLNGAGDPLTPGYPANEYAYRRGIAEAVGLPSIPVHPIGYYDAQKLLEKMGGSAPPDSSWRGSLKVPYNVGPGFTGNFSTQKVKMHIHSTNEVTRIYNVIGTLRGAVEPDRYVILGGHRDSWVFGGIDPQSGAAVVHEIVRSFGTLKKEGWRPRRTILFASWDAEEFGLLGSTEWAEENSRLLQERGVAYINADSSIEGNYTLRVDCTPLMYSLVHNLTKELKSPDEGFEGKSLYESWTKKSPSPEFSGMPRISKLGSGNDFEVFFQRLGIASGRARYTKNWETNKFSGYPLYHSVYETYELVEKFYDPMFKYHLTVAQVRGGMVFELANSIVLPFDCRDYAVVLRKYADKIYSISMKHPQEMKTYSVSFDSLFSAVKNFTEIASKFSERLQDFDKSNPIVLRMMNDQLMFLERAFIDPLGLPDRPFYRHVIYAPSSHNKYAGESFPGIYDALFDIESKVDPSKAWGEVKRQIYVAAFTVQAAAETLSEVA

[3] = system: PC3-PIP/flu tumor-bearing mice; conditions: ref Benešová et al., Mol Pharm 2018, cited from earlier work
[4] = patients; cited from earlier work

## O=C([O-])CN1CCN(CC(=O)[O-])CCN(CC(=O)NCC2CCC(C(=O)NC(Cc3ccc4ccccc4c3)C(=O)NCCCCC(NC(=O)NC(CCC(=O)O)C(=O)O)C(=O)O)CC2)CCN(CC(=O)[O-])CC1.[177Lu+3] (stereo not drawn) [[^177Lu]Lu-PSMA-617]
[1]
  logD value: −4.4 ± 0.2
[2]
  Cell uptake: 60 ± 5%
  Internalized fraction: 13 ± 2%
PSMA
  Kd: 13 nM
[3]; 1 h p.i.
  Blood, accumulated activity: 0.50 ± 0.06 % IA/g
  Bone, accumulated activity: 0.21 ± 0.04 % IA/g
  Heart, accumulated activity: 0.29 ± 0.03 % IA/g
  Intestines, accumulated activity: 0.24 ± 0.01 % IA/g
  Kidneys, accumulated activity: 9.8 ± 1.4 % IA/g
  Liver, accumulated activity: 0.20 ± 0.04 % IA/g
  Lung, accumulated activity: 0.57 ± 0.07 % IA/g
  Muscle, accumulated activity: 0.25 ± 0.20 % IA/g
  PC-3 PIP tumor, accumulated activity: 44 ± 12 % IA/g
  PC-3 flu tumor, accumulated activity: 0.28 ± 0.04 % IA/g
  Salivary glands, accumulated activity: 0.42 ± 0.30 % IA/g
  Spleen, accumulated activity: 0.63 ± 0.27 % IA/g
  Stomach, accumulated activity: 0.18 ± 0.02 % IA/g
  Tumor-to-blood ratio: 88 ± 13
  Tumor-to-kidney ratio: 4.5 ± 0.7
  Tumor-to-liver ratio: 213 ± 17
[3]; 4 h p.i.
  Blood, accumulated activity: ≤ 0.10 % IA/g
  Bone, accumulated activity: ≤ 0.10 % IA/g
  Heart, accumulated activity: ≤ 0.10 % IA/g
  Intestines, accumulated activity: ≤ 0.10 % IA/g
  Kidneys, accumulated activity: 3.7 ± 1.1 % IA/g
  Liver, accumulated activity: ≤ 0.10 % IA/g
  Lung, accumulated activity: ≤ 0.10 % IA/g
  Muscle, accumulated activity: ≤ 0.10 % IA/g
  PC-3 PIP tumor, accumulated activity: 56 ± 8 % IA/g
  PC-3 flu tumor, accumulated activity: ≤ 0.10 % IA/g
  Salivary glands, accumulated activity: ≤ 0.10 % IA/g
  Spleen, accumulated activity: 0.15 ± 0.04 % IA/g
  Stomach, accumulated activity: ≤ 0.10 % IA/g
  Tumor-to-blood ratio: 2315 ± 108
  Tumor-to-kidney ratio: 16 ± 2
  Tumor-to-liver ratio: 598 ± 108
[3]; 24 h p.i.
  Blood, accumulated activity: ≤ 0.10 % IA/g
  Bone, accumulated activity: ≤ 0.10 % IA/g
  Heart, accumulated activity: ≤ 0.10 % IA/g
  Intestines, accumulated activity: ≤ 0.10 % IA/g
  Kidneys, accumulated activity: 0.76 ± 0.15 % IA/g
  Liver, accumulated activity: ≤ 0.10 % IA/g
  Lung, accumulated activity: ≤ 0.10 % IA/g
  Muscle, accumulated activity: ≤ 0.10 % IA/g
  PC-3 PIP tumor, accumulated activity: 37 ± 6 % IA/g
  PC-3 flu tumor, accumulated activity: ≤ 0.10 % IA/g
  Salivary glands, accumulated activity: ≤ 0.10 % IA/g
  Spleen, accumulated activity: ≤ 0.10 % IA/g
  Stomach, accumulated activity: ≤ 0.10 % IA/g
  Tumor-to-blood ratio: 2730 ± 195
  Tumor-to-kidney ratio: 50 ± 4
  Tumor-to-liver ratio: 528 ± 51
[3]; 48 h p.i.
  Blood, accumulated activity: ≤ 0.10 % IA/g
  Bone, accumulated activity: ≤ 0.10 % IA/g
  Heart, accumulated activity: ≤ 0.10 % IA/g
  Intestines, accumulated activity: ≤ 0.10 % IA/g
  Kidneys, accumulated activity: 0.35 ± 0.05 % IA/g
  Liver, accumulated activity: ≤ 0.10 % IA/g
  Lung, accumulated activity: ≤ 0.10 % IA/g
  Muscle, accumulated activity: ≤ 0.10 % IA/g
  PC-3 PIP tumor, accumulated activity: 28 ± 4 % IA/g
  PC-3 flu tumor, accumulated activity: ≤ 0.10 % IA/g
  Salivary glands, accumulated activity: ≤ 0.10 % IA/g
  Spleen, accumulated activity: ≤ 0.10 % IA/g
  Stomach, accumulated activity: ≤ 0.10 % IA/g
  Tumor-to-blood ratio: 3776 ± 585
  Tumor-to-kidney ratio: 81 ± 11
  Tumor-to-liver ratio: 710 ± 97
[4]
  salivary gland uptake: 1.41 ± 0.53 Gy/GBq
